Results reported in article PMC7689096, “Cyclizing Painkillers: Development of Backbone-Cyclic TAPS Analogs” (Frontiers in Chemistry, 2020).
“And” between values parts separate entries of the source, which are not always exact repeats. Identical values can stand only once.

Key:
[1] = tested on: mice; experiment: Mouse tail flick test (analgesia); assay type: in vivo
Protocol: Following the preliminary results showing the in vitro agonist effect of TAPS c(2-6) in activating the μ-opioid receptor, the activity of TAPS c(2-6) in inducing analgesia in vivo was studied utilizing the mouse tail flick model. In this model, the mouse is exposed to local pain induced by an infrared light beam at the tail of the animal, and the time it takes for the animal to react to the pain, i.e., flick its tail, termed the “Latency time to tail flick,” is recorded. The treatment groups received either 5 or 15 mg/kg of TAPS c(2-6) dissolved in PBS. These were compared to animals receiving morphine (5 mg/kg) as a positive control or vehicle (PBS) as a negative control (Figure 9).
For the assessment of analgesia induced by TAPS c(2-6), the mouse tail-flick model was used. […] Animals were placed upon the TF instrument surface (Ugo Basile S.R.L) and held in place. The tail was placed straight back over an infrared light source. The heat source and timer were turned on and automatically switched off when the mouse flicked its tail away from the heat source. The time it took for the animal to flick its tail was measured and results were recorded as latency time to TF. […] Prior to TF measurement, assessment of possible locomotor side-effects via the Open-Field model was performed, as will be described in the next section TAPS c(2-6) Adverse Effect Assessment- the Open-Field Test.

[2] = target: T1, human recombinant μ (MOP, OPRM1) receptor (Homo sapiens, UniProt P35372); experiment: MOP opioid receptor functional agonism in CHO cells expressing human recombinant μ receptors; assay type: cell-based; conditions: At 10^−6 M, percent of control specific agonist response, values lower than 25% not significant
T1 construct: host or cells: CHO cells
T1 sequence (P35372 whole entry): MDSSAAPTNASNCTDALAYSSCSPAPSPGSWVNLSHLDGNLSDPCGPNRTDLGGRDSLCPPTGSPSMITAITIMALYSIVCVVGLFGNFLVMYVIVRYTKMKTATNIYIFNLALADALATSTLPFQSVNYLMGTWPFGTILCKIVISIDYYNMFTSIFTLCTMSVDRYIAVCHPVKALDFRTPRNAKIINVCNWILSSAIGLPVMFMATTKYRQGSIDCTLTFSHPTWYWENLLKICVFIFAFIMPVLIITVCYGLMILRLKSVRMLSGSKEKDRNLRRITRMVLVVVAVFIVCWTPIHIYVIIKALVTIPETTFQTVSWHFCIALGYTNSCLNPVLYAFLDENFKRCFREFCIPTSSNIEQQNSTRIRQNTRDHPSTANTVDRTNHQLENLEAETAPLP
Protocol: Peptides were tested for μ (MOP, OPRM1) and δ (DOP, OPRD2) opioid receptor activation functional agonism and antagonism using CHO cells expressing human recombinant μ receptors and NG-10815 cells which express significant endogenous levels of δ opioid receptors. The cultures were incubated for 10 min at 37°C followed by impedance measurements of CHO cells and cAMP was assayed by the HTRF method using NG-10815 cells, according to CEREP standard assay protocols. The respective reference, non-peptide small molecules were tested concurrently with the TAPS analogs. The agonist compounds were: DPDPE (selective agonist of DOP receptor) and DAMGO (high MOP receptor specificity) and the antagonist compounds were: Naltrindole (selective DOP receptor antagonist) and CTOP (MOP receptor antagonist). […] The results are expressed as a percentage of respective control-specific response. […] These findings indicate that TAPS cyclic peptides are MOP selective full agonists. […] The cyclic TAPS peptide had lower activity than the linear parent TAPS peptide (90 ± 5%) – a finding that can be attributed to their restricted conformation relative to the flexible linear peptide conformation.
Evaluation of the Agonist Activity of Compounds at the Human μ Receptor in Transfected CHO Cells, Determined by Measuring Their Effects on cAMP modulation Using the HTRF Detection Method
Thereafter, the adenylyl cyclase activator NKH 477 is added at a final concentration of […]. Following 10 min incubation at 37°C, the cells are lysed and the fluorescence acceptor (D2-labeled cAMP) and fluorescence donor (anti-cAMP antibody labeled with europium cryptate) are added. After 60 min at room temperature, the fluorescence transfer is measured at lex = 337 nm and lem = 620 and 665 nm using a microplate reader (Rubystar, BMG). The cAMP concentration is determined by dividing the signal measured at 665 nm by that measured at 620 nm (ratio). The results are expressed as a percent of the control response to 1 μM DAMGO. The standard reference agonist is DAMGO, which is tested in each experiment at several concentrations to generate a concentration-response curve from which its EC50 value is calculated.
The respective reference, non-peptide small molecules were tested concurrently with the TAPS analogs; Agonist compounds DPDPE ([D-Pen2,D-Pen5]enkephalin), selective agonist of DOP receptor at 2 × 10^−9 M and DAMGO ([D-Ala2, N-MePhe4, Gly-ol] enkephalin), high MOP specificity at 2.5 × 10^−9 M; Antagonist compounds: naltrindole 7-(cyclopropylmethyl)-6,7-dehydro-4,5α-epoxy-3,14-dihydroxy-6,7-2′,3′-indolomorphinan hydrochloride, selective DOP antagonist, 5 × 10^−10 M and CTOP (D-Phe-Cys-Tyr-D-Trp-Orn-Thr-Pen-Thr-NH2), MOP antagonist at 3.4 × 10^−7 M. Depending on the assay volume and solvent tolerance, the stock solutions were diluted to [100×], [333×] or [1,000×] in 100% DMEM solvent, then either added directly or further diluted to [10×] or [5×] in H2O or Hank's balanced salt solution (HBSS) before addition to the assay well (final solvent concentration kept constant). The cultures were incubated for 10 min at 37°C followed by impedance measurements using cellular dielectric spectroscopy of CHO cells and cAMP was assayed by homogeneous time resolved fluorescence (HTRF) method using NG-10815 cells, according to CEREP standard assay protocols (https://euroscreenfast.com/assays/opioid-orl1-camp-fast-0360c; https://euroscreenfast.com/assays/opioid-op1-delta-camp-fast-0379c). The results (mean of three experiments) are expressed as a percent of control specific agonist response [(measured TAPS specific response/control specific agonist response) × 100] and as a percent inhibition of control specific agonist response [100 – (measured TAPS specific response/control specific agonist response) × 100] obtained in the presence of the TAPS compounds. […]

N=C(N)NCCC[C@@H]1C(=O)N[C@@H](Cc2ccccc2)C(=O)N(CC(N)=O)CCNC(=O)NCCCCCCN1C(=O)[C@@H](N)Cc1ccc(O)cc1 [TAPS c(2-6)]
analgesia (latency time to tail flick) ([1]; 5 mg/kg IP, compared to PBS): induced analgesia | analgesia (latency time to tail flick) ([1]; 15 mg/kg IP, compared to morphine 5 mg/kg): comparative in strength and duration to that induced by morphine | duration of analgesia ([1]; higher dosage 15 mg/kg IP): at least 5 h | MOP agonist (%) [2]: 48 ± 3% and 48^** %
